US9511074B2, “Methods of treating disorders associated with protein polymerization” (UNIVERSITY OF PITTSBURGH—OF THE COMMONWEALTH SYSTEM OF …, priority 2009, dated 2016)

Key:
[1] = test system: APP-PS1 mouse; assay: Plaque load and Aβ ELISA in APP-PS1 mouse model of AD; assay type: in vivo; conditions: APP-PS1 mice, 200 mg/kg/day gavage, 5 doses per wk, 3 wks
From the text: The APP-PS1 mouse model of AD is associated with accelerated amyloid deposition with plaques resembling AD in humans starting to appear at 12 weeks of age (12) and progressive behavioral changes starting at 6 months of age (55, 56). Only a limited number of mice were available at the ideal age, 9 wks, at the time of the study, so the pilot study was very small. 9-12 wks of age was selected as the ideal age because it represents the age with the earliest consistent appearance of AP deposition in APP-PS1 mice. Mice were treated by orogastric gavage with CBZ 200 mg/kg/day, 5 doses per wk, for 3 wks; n=2 for CBZ and n=4 for vehicle (DMSO). Brain sections were stained with X-34, antibodies to Aβ1-40 and Aβ1-42 to determine plaque load using techniques as described previously (57).

[2] = test system: ATZ in the liver; assay: Hepatic load of ATZ in vivo in PiZ×GFP-LC3 mice (immunoblot, globule histology); design: species or system mouse
From the text: Transgenic Mice PiZ mice that have been bred into the C57/BL6 background have been described previously (1). For the second and third series of experiments with CBZ we used PiZ mice that were re-derived onto the FVB/N background for a move into a new animal facility. The transgene that was used to generate the PiZ mouse is a genomic fragment of DNA that contains the coding regions of the ATZ gene together with introns and ˜2 kilobases of upstream and downstream flanking regions (10). […] In this perspective it is not an exact phenocopy of the classical form of AT deficiency. In particular it cannot be a model for the loss-of-function mechanisms associated with the classical form of AT deficiency. It is known to have abundant expression of ATZ in hepatocytes and other cell types that express ATZ in humans (11). In the liver there are abundant ATZ-containing intrahepatocytic globules and inflammation that is characteristic of what is seen in the human liver (11,12). […] Taken together, these observations indicate that the PiZ mouse is an appropriate model for the gain-of-toxic function mechanism that is responsible for liver damage in the classical form of AT deficiency. Indeed, the fact that these mice are endowed with endogenous AT function and therein normal levels of AT in the serum and body fluids make them an even more ‘pure’ model for liver damage by gain-of-toxic function. PiZ×GFP-LC3 mice, which generated green fluorescent autophagosomes, have been described previously (2). PiZ×IKKβ.hep were generated by mating of PiZ to IKKβ.hep, which has conditional hepatocyte-specific disruption of NF.B activation (M. Karin, 17). There is increased injury in the liver of these mice as evidenced by the hepatic hydroxyproline content, 153.3% of that in the PiZ mouse (FIG. 7).
Histology Sections of liver tissue were stained with hematoxylin and eosin, PAS, PAS after diastase treatment, TUNEL, PCNA, Ki67 and Sirius Red using standard techniques (18). Previous methods for staining with antibody to smooth muscle actin were used (19). Each was examined by the pathologist (GM) who was completely blinded to the experimental protocol. […] The number of inflammatory nodules, AT-containing globules and autophagosomes were each quantified blindly by counting cells in 6 microscopic fields of 10 different sections for each liver. The number of nuclei, as determined by Hoechst staining, was used to exclude the possibility that different numbers of cells were counted in liver sections from mice treated with CBZ as compared to controls. Hepatic hydroxyproline concentration was determined by a well-established protocol (20,21). […]
For immunoblot on liver, the liver was snap frozen in liquid nitrogen and stored at −80° C. […] Total protein concentration was measured by BCA assay (Pierce). […]

[3] = test system: PiZ×IKKbDhep mouse; assay: Hepatic hydroxyproline in PiZ×IKKbDhep mouse model; assay type: in vivo; conditions: FIG. 7
From the text: Transgenic Mice PiZ mice that have been bred into the C57/BL6 background have been described previously (1). For the second and third series of experiments with CBZ we used PiZ mice that were re-derived onto the FVB/N background for a move into a new animal facility. The transgene that was used to generate the PiZ mouse is a genomic fragment of DNA that contains the coding regions of the ATZ gene together with introns and ˜2 kilobases of upstream and downstream flanking regions (10). […] In this perspective it is not an exact phenocopy of the classical form of AT deficiency. In particular it cannot be a model for the loss-of-function mechanisms associated with the classical form of AT deficiency. […]
Histology Sections of liver tissue were stained with hematoxylin and eosin, PAS, PAS after diastase treatment, TUNEL, PCNA, Ki67 and Sirius Red using standard techniques (18). […] The number of inflammatory nodules, AT-containing globules and autophagosomes were each quantified blindly by counting cells in 6 microscopic fields of 10 different sections for each liver. The number of nuclei, as determined by Hoechst staining, was used to exclude the possibility that different numbers of cells were counted in liver sections from mice treated with CBZ as compared to controls. Hepatic hydroxyproline concentration was determined by a well-established protocol (20,21).

[4] = PiZ×GFP-LC3 mice, 250 mg kg-1 day-1 for 2 weeks by gavage

## NC(=O)N1c2ccccc2C=Cc2ccccc21 [CBZ, 5H-dibenz [b,f]azepine-5-carboxamide]
[1]
  soluble and insoluble Aβ1-40 and Aβ1-42 by ELISA: trend toward lower values
[1]; n=2
  plaque load (X-34, anti-Aβ1-40, anti-Aβ1-42 staining): marked reduction
[2]; [4]
  intrahepatocytic ATZ-containing globules: marked decrease
  total, insoluble, and soluble ATZ in the liver: marked decrease
[2]; quantitative morphometry, 250 mg kg-1 day-1 for 2 weeks, P<0.001
  decrease in globule-containing hepatocytes, factor: 3.36
[3]
  hepatic hydroxyproline concentration: decrease
